Measured values: patent publication US20250123282A1, “METHODS FOR EVALUATION AND TREATMENT OF TYROSINE KINASE INHIBITOR (TKI)-RESISTANT ACUTE MYELOID LEUKEMIA” (LOMA LINDA UNIVERSITY, priority 2021, published 2025)

Key:
MV4-11 cells [1] = experiment: FACS time course of CD44+pBAD+ and Ki67+CD33+CD44+ populations in TKI-treated MV4-11; format: cell-based, human
Excerpt: To follow the cell fate of TKI-treated MV4-11 and MOLM-14, culturing of blasts were continued by performing medium change every 2-3 days. […] The BAD protein is a pro-apoptotic member of the BCL-2 gene family, which is involved in initiating apoptosis. Dephosphorylated BAD is pro-apoptotic by binding BCL-2 and inactivating BCL-2, while phosphorylated BAD (pBAD) is anti-apoptotic by leaving BCL-2 free to inhibit BAX-triggered apoptosis.
(§1) Small Molecular Inhibitors and in vitro & ex vivo Treatment. […] The dose of 80 nM for the four TKIs was selected based on their dose-dependent cytotoxicity in previous reports. […] Both GILT and QUIZ were reported to start to suppress the tumorigenic clustering and c-Kit at the dose of 80 nM. […] The combination of 5 μM 5-Azacitidine (AZA) and 80 nM 1α,25-Dihydroxyvitamin D3 (VD3) was added to the experimental group similar to the previous report. As combination agents to treat blasts in vitro, one dose of 80 nM GILT with one dose of either 100 nM Venetoclax (BCL2 inhibitor), 10 μM (R)-Lisofylline (STAT4 inhibitor), 100 nM AZD1208 (PIM inhibitor), 500 nM PF-06826647 (TYK2 inhibitor), or 500 nM AT9283 (JAK2/3 inhibitor) were added to 1 ml of 1×10^6 cells for each experimental group in 24 well plates. Three days after the one dose treatment, cells were then collected for either analyses by FACS and qPCR, or re-plated into 24 well plates for continued culture. At different time points, re-plated cells were collected for analyses by FACS and qPCR. Medium change was performed every 2-3 days.
Flow Cytometry (FACS). Cells were harvested and examined for the expression of cell surface biomarkers (CD) and intracellular proteins by multichromatic FACS as previously described. About 1×10^4˜10^6 cells in 100 μl FACS buffer (PBS containing 1% FBS and 0.05% sodium azide) were stained with various fluorescence-conjugated antibodies specific for the desired cell surface proteins at 4° C. for 30 min. The surface-stained cells were then fixed and permeabilized using the appropriate reagents (e.g. the BD Pharmingen Cytofix/Cytoperm buffer) and stained with different fluorescence-conjugated antibodies specific for the desired intracellular proteins at 4° C. for 2 hours in the permeabilizing buffer (e.g. the BD Perm/Wash buffer). Concentrations of the Abs were used per the manufacturers' recommendations. Finally, the cells were washed twice in the permeabilizing buffer and twice in the FACS buffer before being analyzed on the BD FACSAria II. Data was analyzed using the FlowJo software (Tree Star Inc., Ashland, OR).

MV4-11 cells [2] = experiment: qPCR analyses of gene expression changes in TKI-treated MV4-11; format: cell-based, human
Excerpt: MV4-11 cells (3 days after TKI treatment) were harvested and analyzed by reverse transcription quantitative polymerase chain reaction (qPCR). The qPCR data of four genetic aspects including cell death, kinases specialized in phosphorylation of BAD, JAK/STAT signaling pathway, and intrinsic inhibitory pathways were compared. […] Next, to investigate which kinases are responsible for the phosphorylation of BAD (pBAD) after TKI treatment, screenings of those kinase candidates reported to phosphorylate BAD under physiological conditions were conducted. […] Elevated gene expressions of both PIM2 and PIM3 have been found in adult AML patients associated with poor survival.
as §1
RNA Isolation and Real-Time Polymerase Chain Reaction (qPCR) analysis. MV4-11 and MOLM-14 cells were cultured with the presence of TKI drugs for 72 hours or re-plated 28 days after the treatment of TKI drugs. Cells were isolated for RNA isolation and qPCR analysis as previously described. Total RNA was isolated using the RNeasy Micro Kit (Qiagen) according to the manufacturer's instruction. First-strand cDNA was synthesized using the SuperScript III Reverse Transcriptase (Invitrogen; Life Technologies). With an Applied Biosystems 7900HT Real-Time PCR machine, qPCR was performed and analyzed using known primers for the specific markers. The PCR conditions were 10 minutes at 95° C. followed by 40 cycles of 10 seconds at 95° C. and 15 seconds at 60° C. The relative expression level of a gene was determined using the ΔΔCt method and normalized to GAPDH.

[3] = MV4-11, 10 days after TKI treatment
[4] = MV4-11, 20 days after TKI treatment
[5] = MV4-11, 28 days after TKI treatment
[6] = MV4-11, 3 days after TKI treatment, vs control non-treatment cells
[7] = MV4-11, 10 days after TKI treatment, vs non-treatment control
[8] = MV4-11, 28 days after the treatment
[9] = MV4-11, 28 days after the treatment, vs control non-treatment cells
[10] = MV4-11, 3 days after TKI treatment, vs control

| Structure (SMILES) | population of viable CD44+pBAD+ cells (MV4-11 cells [1]; [3]) [%] | population of viable Ki67+CD33+CD44+ cells (MV4-11 cells [1]; [3]) [%] | population of viable CD44+pBAD+ cells (MV4-11 cells [1]; [4]) [%] | population of viable Ki67+CD33+CD44+ cells (MV4-11 cells [1]; [4]) [%] | BAD mRNA increase (MV4-11 cells [2]; [6]) [fold] | BAX mRNA increase (MV4-11 cells [2]; [6]) [fold] | BCL-2 mRNA increase (MV4-11 cells [2]; [6]) [fold] | JAK2 mRNA increase (MV4-11 cells [2]; [6]) [fold] | PIAS2 mRNA increase (MV4-11 cells [2]; [6]) | PIM2 mRNA increase (MV4-11 cells [2]; [6]) [fold] | PIM3 mRNA increase (MV4-11 cells [2]; [6]) [fold] | SHP1 mRNA increase (MV4-11 cells [2]; [6]) | SHP2 mRNA increase (MV4-11 cells [2]; [6]) [fold] | SOCS1 mRNA increase (MV4-11 cells [2]; [6]) [fold] | SOCS3 mRNA increase (MV4-11 cells [2]; [6]) [fold] | STAT2 mRNA increase (MV4-11 cells [2]; [6]) [fold] | STAT4 mRNA increase (MV4-11 cells [2]; [6]) [fold] | TYK2 mRNA increase (MV4-11 cells [2]; [6]) [fold] | other results |
| --- | --- | --- | --- | --- | --- | --- | --- | --- | --- | --- | --- | --- | --- | --- | --- | --- | --- | --- | --- |
| CC(C)(C)c1cc(NC(=O)Nc2ccc(-c3cn4c(n3)sc3cc(OCCN5CCOCC5)ccc34)cc2)no1 [QUIZ, Quizartinib] | 93.1 | 68.2 | 20.7 | 52.8 | 16 | 44 | 31 | 6 | about 2 fold | 120 | 81 | about 3 fold | 5 | 88 | 120 | 6 | 19 | 46 | population of viable CD44+pBAD+ cells (MV4-11 cells [1]; [5]): 0.24%; population of viable Ki67+CD33+CD44+ cells (MV4-11 cells [1]; [5]): 1.58%; PIM1 mRNA decrease (MV4-11 cells [2]; [6]): 0.5 fold; PIAS2 mRNA increase (MV4-11 cells [2]; [7]): 570 fold; PIM2 mRNA increase (MV4-11 cells [2]; [7]): 355 fold; PIM3 mRNA increase (MV4-11 cells [2]; [7]): 494 fold; SHP2 mRNA increase (MV4-11 cells [2]; [7]): 9 fold; SOCS1 mRNA increase (MV4-11 cells [2]; [7]): 615 fold; SOCS3 mRNA increase (MV4-11 cells [2]; [7]): 590 fold; STAT2 mRNA increase (MV4-11 cells [2]; [7]): 14 fold; STAT4 mRNA increase (MV4-11 cells [2]; [7]): 28 fold; TYK2 mRNA increase (MV4-11 cells [2]; [7]): 73 fold; PIM2 mRNA increase (MV4-11 cells [2]; [8]): about 2 fold; PIM3 mRNA increase (MV4-11 cells [2]; [8]): about 2 fold; CISH mRNA increase (MV4-11 cells [2]; [9]): about 2 fold; SOCS1 mRNA increase (MV4-11 cells [2]; [9]): ~4 fold; SOCS3 mRNA increase (MV4-11 cells [2]; [9]): about 2 fold |
| CCc1nc(C(N)=O)c(Nc2ccc(N3CCC(N4CCN(C)CC4)CC3)c(OC)c2)nc1NC1CCOCC1 [GILT, Gilteritinib] | 28.7 | 17.4 | 1.1 | 1.27 | 23 | 68 | 49 | 6 | about 2 fold | 203 | 134 | about 4 fold | 9 | 153 | 182 | 9 | 23 | 71 | NFκB2 mRNA increase (MV4-11 cells [2]; MV4-11, 80 nM TKI, vs non-treated control): 110 fold; CXCR2 mRNA increase (MV4-11 cells [2]; MV4-11, 3 days after TKI treatment): 109 fold; AKT1 mRNA increase (MV4-11 cells [2]; [10]): 10 fold; PRKACA mRNA increase (MV4-11 cells [2]; [10]): 15 fold; STAT3 mRNA increase (MV4-11 cells [2]; [6]): 2 fold; STAT5A mRNA increase (MV4-11 cells [2]; [6]): 4 fold; CXCR1 mRNA increase (MV4-11 cells [2]; MV4-11, 3 days after TKI treatment, data not shown): about 90 fold |
